In US9725449B2, “Tricyclic compounds as anticancer agents” (BRISTOL-MYERS SQUIBB COMPANY, priority 2015, dated 2017):

Biological target: BRD4 (Homo sapiens, UniProt O60885)
Experiment: Time resolved fluorescence resonance energy transfer (TR-FRET) binding assay, bromodomain BRD4
Conditions: one of the FRET assays described; read-out: FRET BRD4 IC50

Question: With `COc1ncc(CO)c2c1c1ncc(-c3c(C)nnn3C)cc1n2[C@H](c1ccccc1)C1CCOCC1` [Example 136, [5-(Dimethyl-1H-1,2,3-triazol-5-yl)-13-methoxy-8-[(S)-oxan-4-yl(phenyl)methyl]-3,8,12-triazatricyclo[7.4.0.0^2,^7]trideca-1(9),2,4,6,10,12-hexaen-10-yl]methanol] as the compound, how does the IC50 read?
Answer: The IC50 was under 10 nM.

Question: With `COc1ncc(C(=O)N2CC(F)C2)c2c1c1ncc(-c3c(C)nnn3C)cc1n2[C@H](c1ccccc1)C1CCOCC1` [Example 137, 5-(dimethyl-1H-1,2,3-triazol-5-yl)-10-(3-fluoroazetidine-1-carbonyl)-13-methoxy-8-[(S)-oxan-4-yl(phenyl)methyl]-3,8,12-triazatricyclo[7.4.0.0^2,^7]trideca-1(9),2,4,6,10,12-hexaene] as the compound, how does the IC50 read?
Answer: The IC50 was under 10 nM.

Question: For `[2H]C([2H])([2H])c1nnn(C)c1-c1cnc2c3c(OC)ncc(C(C)(C)O)c3n([C@H](c3ccccc3)C3CCOCC3)c2c1` [Example 138, 2-{13-Methoxy-5-[4-(^2H3)methyl-1-methyl-1H-1,2,3-triazol-5-yl]-8-[(S)-oxan-4-yl(phenyl)methyl]-3,8,12-triazatricyclo[7.4.0.0^2,^7]trideca-1(13),2(7),3,5,9,11-hexaen-10-yl}propan-2-ol], which IC50 is on record?
Answer: Its IC50 is under 10 nM.

Question: `[2H]C([2H])([2H])c1nnn(C)c1-c1cnc2c3c(OC)ncc(CO)c3n([C@H](c3ccccc3)C3CCOCC3)c2c1` [Example 139, {13-methoxy-5-[4-(^2H3)methyl-1-methyl-1H-1,2,3-triazol-5-yl]-8-[(S)-oxan-4-yl(phenyl)methyl]-3,8,12-triazatricyclo[7.4.0.0^2,^7]trideca-1(9),2,4,6,10,12-hexaen-10-yl}methanol] was tested. Which IC50 did it give?
Answer: The IC50 was under 10 nM.

Question: `COC(=O)c1cnc(OC)c2c3ncc(-c4c(C)noc4C)cc3n([C@H](c3ccccc3)C3CCOCC3)c12` [Example 140, Methyl 5-(dimethyl-1,2-oxazol-4-yl)-13-methoxy-8-[(S)-oxan-4-yl(phenyl)methyl]-3,8,12-triazatricyclo[7.4.0.0^2,^7]trideca-1(13),2(7),3,5,9,11-hexaene-10-carboxylate] was tested. Which IC50 did it give?
Answer: Its IC50 is under 1 nM.

Question: Which IC50 does the source give for `COc1ncc(C(C)(C)O)c2c1c1ncc(-c3c(C)noc3C)cc1n2[C@H](c1ccccc1)C1CCOCC1` [Example 141, 2-[5-(Dimethyl-1,2-oxazol-4-yl)-13-methoxy-8-[(S)-oxan-4-yl(phenyl)methyl]-3,8,12-triazatricyclo[7.4.0.0^2,^7]trideca-1(9),2,4,6,10,12-hexaen-10-yl]propan-2-ol] here?
Answer: Its IC50 is under 10 nM.

Question: With `COc1ncc(C(C)(C)O)c2c1c1ncc(-c3c(C)nnn3C)cc1n2[C@H](c1ccccc1)C1CCOCC1` [Example 142, 2-[5-(Dimethyl-1H-1,2,3-triazol-5-yl)-13-methoxy-8-[(S)-oxan-4-yl(phenyl)methyl]-3,8,12-triazatricyclo[7.4.0.0^2,^7]trideca-1(9),2,4,6,10,12-hexaen-10-yl]propan-2-ol] as the compound, how does the IC50 read?
Answer: The IC50 was under 10 nM.

Question: `Cc1nnn(C)c1-c1cnc2c3cnc(C#N)nc3n([C@H](c3ccccc3)C3CCOCC3)c2c1` [Example 143, 5-(Dimethyl-1H-1,2,3-triazol-5-yl)-8-[(S)-oxan-4-yl(phenyl)methyl]-3,8,10,12-tetraazatricyclo[7.4.0.0^2,^7]trideca-1(9),2(7),3,5,10,12-hexaene-11-carbonitrile] was tested. Which IC50 did it give?
Answer: Its IC50 is under 1500 nM.

Question: With `Cc1noc(C)c1-c1cnc2c3ccc(S(C)(=O)=O)nc3n([C@H](c3ccccc3)C3CCOCC3)c2c1` [Example 144, 5-(Dimethyl-1,2-oxazol-4-yl)-11-methanesulfonyl-8-[(S)-oxan-4-yl(phenyl)methyl]-3,8,10-triazatricyclo[7.4.0.0^2,^7]trideca-1(13),2(7),3,5,9,11-hexaene] as the compound, how does the IC50 read?
Answer: Its IC50 is under 10 nM.

Question: With `Cc1nnn(C)c1-c1cnc2c3ccc(S(C)(=O)=O)nc3n([C@H](c3ccccc3)C3CCOCC3)c2c1` [Example 145, 5-(Dimethyl-1H-1,2,3-triazol-5-yl)-11-methanesulfonyl-8-[(S)-oxan-4-yl(phenyl)methyl]-3,8,10-triazatricyclo[7.4.0.0^2,^7]trideca-1(13),2(7),3,5,9,11-hexaene] as the compound, how does the IC50 read?
Answer: The IC50 was under 10 nM.

Question: For `Cc1cnn(C)c1-c1cnc2c3ccc(S(C)(=O)=O)nc3n([C@H](c3ccccc3)C3CCOCC3)c2c1` [Example 146, 5-(1,4-Dimethyl-1H-pyrazol-5-yl)-11-methanesulfonyl-8-[(S)-oxan-4-yl(phenyl)methyl]-3,8,10-triazatricyclo[7.4.0.0^2,^7]trideca-1(13),2(7),3,5,9,11-hexaene], which IC50 is on record?
Answer: The IC50 was under 1500 nM.

Question: How did the IC50 turn out when `Cc1noc(C)c1-c1ccc2c3ncc(-c4c(C)nnn4C)cc3n([C@H](c3ccccc3)C3CCOCC3)c2n1` [Example 147, 11-(Dimethyl-1,2-oxazol-4-yl)-5-(dimethyl-1H-1,2,3-triazol-5-yl)-8-[(S)-oxan-4-yl(phenyl)methyl]-3,8,10-triazatricyclo[7.4.0.0^2,^7]trideca-1(13),2(7),3,5,9,11-hexaene] was run?
Answer: Its IC50 is under 10 nM.

Question: `Cc1cnn(C)c1-c1ccc2c3ncc(-c4c(C)nnn4C)cc3n([C@H](c3ccccc3)C3CCOCC3)c2n1` [Example 148, 5-(Dimethyl-1H-1,2,3-triazol-5-yl)-11-(1,4-dimethyl-1H-pyrazol-5-yl)-8-[(S)-oxan-4-yl(phenyl)methyl]-3,8,10-triazatricyclo[7.4.0.0^2,^7]trideca-1(13),2(7),3,5,9,11-hexaene] was tested. Which IC50 did it give?
Answer: The IC50 was under 10 nM.

Question: `Cc1nnn(C)c1-c1cnc2c3ccc(-c4cnn(C(C)C)c4)nc3n([C@H](c3ccccc3)C3CCOCC3)c2c1` [Example 149, 5-(Dimethyl-1H-1,2,3-triazol-5-yl)-8-[(S)-oxan-4-yl(phenyl)methyl]-11-[1-(propan-2-yl)-1H-pyrazol-4-yl]-3,8,10-triazatricyclo[7.4.0.0^2,^7]trideca-1(13),2(7),3,5,9,11-hexaene] was tested. Which IC50 did it give?
Answer: The IC50 was under 10 nM.

Question: Which IC50 does the source give for `Cc1nnn(C)c1-c1cnc2c3ccc(-c4cnn(C5CC5)c4)nc3n([C@H](c3ccccc3)C3CCOCC3)c2c1` [Example 150, 11-(1-Cyclopropyl-1H-pyrazol-4-yl)-5-(dimethyl-1H-1,2,3-triazol-5-yl)-8-[(S)-oxan-4-yl(phenyl)methyl]-3,8,10-triazatricyclo[7.4.0.0^2,^7]trideca-1(13),2(7),3,5,9,11-hexaene] here?
Answer: The IC50 was under 1 nM.

Question: How did the IC50 turn out when `[2H]C([2H])([2H])c1nnn(C)c1-c1cnc2c3ccc(N4CCN(C5CC5)CC4)nc3n([C@H](c3ccccc3)C3CCOCC3)c2c1` [Example 151, 11-(4-Cyclopropylpiperazin-1-yl)-5-[4-(^2H3)methyl-1-methyl-1H-1,2,3-triazol-5-yl]-8-[(S)-oxan-4-yl(phenyl)methyl]-3,8,10-triazatricyclo[7.4.0.0^2,^7]trideca-1(9),2(7),3,5,10,12-hexaene] was run?
Answer: Its IC50 is under 10 nM.

Question: How did the IC50 turn out when `[2H]C([2H])([2H])c1nnn(C)c1-c1cnc2c3ccc(N4CCN(C(C)(C)C)CC4)nc3n([C@H](c3ccccc3)C3CCOCC3)c2c1` [Example 152, 11-(4-tert-Butylpiperazin-1-yl)-5-[4-(^2H3)methyl-1-methyl-1H-1,2,3-triazol-5-yl]-8-[(S)-oxan-4-yl(phenyl)methyl]-3,8,10-triazatricyclo[7.4.0.0^2,^7]trideca-1(9),2(7),3,5,10,12-hexaene] was run?
Answer: The IC50 was under 10 nM.

Question: For `[2H]C([2H])([2H])c1nnn(C)c1-c1cnc2c3ccc(N4CCN(C(C)C)CC4)nc3n([C@H](c3ccccc3)C3CCOCC3)c2c1` [Example 153, 5-[4-(^2H3)Methyl-1-methyl-1H-1,2,3-triazol-5-yl]-8-[(S)-oxan-4-yl(phenyl)methyl]-11-[4-(propan-2-yl)piperazin-1-yl]-3,8,10-triazatricyclo[7.4.0.0^2,^7]trideca-1(9),2(7),3,5,10,12-hexaene], which IC50 is on record?
Answer: The IC50 was under 10 nM.

Question: `[2H]C([2H])([2H])c1nnn(C)c1-c1cnc2c3ccc(N4CCN(CC(F)(F)F)CC4)nc3n([C@H](c3ccccc3)C3CCOCC3)c2c1` [Example 154, 5-[4-(^2H3)Methyl-1-methyl-1H-1,2,3-triazol-5-yl]-8-[(S)-oxan-4-yl(phenyl)methyl]-11-[4-(2,2,2-trifluoroethyl)piperazin-1-yl]-3,8,10-triazatricyclo[7.4.0.0^2,^7]trideca-1(9),2(7),3,5,10,12-hexaene] was tested. Which IC50 did it give?
Answer: Its IC50 is under 10 nM.

Question: For `Cc1nnn(C)c1-c1cnc2c3cnc(-c4c(C)nnn4C)nc3n([C@H](c3ccccc3)C3CCOCC3)c2c1` [Example 155, 5,11-Bis(dimethyl-1H-1,2,3-triazol-5-yl)-8-[(S)-oxan-4-yl(phenyl)methyl]-3,8,10,12-tetraazatricyclo[7.4.0.0^2,^7]trideca-1(9),2(7),3,5,10,12-hexaene], which IC50 is on record?
Answer: The IC50 was under 10 nM.

Question: With `[2H]C([2H])([2H])N1CCN(c2ncc3c4ncc(-c5c(C)nnn5C)cc4n([C@H](c4ccccc4)C4CCOCC4)c3n2)CC1` [Example 156, 5-(Dimethyl-1H-1,2,3-triazol-5-yl)-11-[4-(^2H3)methylpiperazin-1-yl]-8-[(S)-oxan-4-yl(phenyl)methyl]-3,8,10,12-tetraazatricyclo[7.4.0.0^2,^7]trideca-1(9),2(7),3,5,10,12-hexaene] as the compound, how does the IC50 read?
Answer: Its IC50 is under 10 nM.

Question: `Cc1nnn(C)c1-c1cnc2c3cnc(N4CCN(C5CC5)CC4)nc3n([C@H](c3ccccc3)C3CCOCC3)c2c1` [Example 157, 11-(4-Cyclopropylpiperazin-1-yl)-5-(dimethyl-1H-1,2,3-triazol-5-yl)-8-[(S)-oxan-4-yl(phenyl)methyl]-3,8,10,12-tetraazatricyclo[7.4.0.0^2,^7]trideca-1(9),2(7),3,5,10,12-hexaene] was tested. Which IC50 did it give?
Answer: Its IC50 is under 10 nM.

Question: How did the IC50 turn out when `COc1nnn(C)c1-c1cnc2c3cnc(N4C[C@@H](C)S(=O)(=O)[C@H](C)C4)nc3n([C@H](c3ccccc3)C3CCOCC3)c2c1` [Example 158, (2R,6R)-4-[5-(4-Methoxy-1-methyl-1H-1,2,3-triazol-5-yl)-8-[(S)-oxan-4-yl(phenyl)methyl]-3,8,10,12-tetraazatricyclo[7.4.0.0^2,^7]trideca-1(9),2(7),3,5,10,12-hexaen-11-yl]-2,6-dimethyl-1λ^6,4-thiomorpholine-1,1-dione] was run?
Answer: The IC50 was under 10 nM.

Question: Which IC50 does the source give for `[2H]C([2H])([2H])c1nnn(C)c1-c1cnc2c3cnc(C(C)(C)O)cc3n([C@H](c3ccc(F)cc3)C3CCOCC3)c2c1` [Example 159, 2-{8-[(S)-(4-Fluorophenyl)(oxan-4-yl)methyl]-5-[4-(^2H3)methyl-1-methyl-1H-1,2,3-triazol-5-yl]-3,8,12-triazatricyclo[7.4.0.0^2,^7]trideca-1(13),2(7),3,5,9,11-hexaen-11-yl}propan-2-ol] here?
Answer: The IC50 was under 1500 nM.
